Assay results as given in ChEMBL document CHEMBL6134868, “Novel Aryl Sulfonium Modification on Vancomycin to Tackle MRSA and VRE In Vitro and In Vivo through Dual Enhanced Cell-Wall and Membrane Inhibition” (J Med Chem, 2025).
Values after ≈ are worked out from the molar mass of the structure shown. Positions of bridges follow the written chain, without caps; N, C: chain ends. Non-standard residues stand in square brackets, D forms with d. Residues, ends and D or L forms follow the SMILES beside them. *: point of attachment. X1 = CC[C@H](C)CCCCC(=O)*; Dab = NCC[C@H](N)C(=O)O

What was measured:
Format in all cases: functional
Settings in all cases: time 16-24 hrs
Staphylococcus aureus [1] = experiment: Antibacterial activity against vancomycin-intermediate Staphylococcus aureus Mu50 incubated for 16 to 24 hrs by broth microdilution assay
Staphylococcus aureus [2] = experiment: Antibacterial activity against methicillin-resistant Staphylococcus aureus USA300 LAC incubated for 16 to 24 hrs by broth microdilution assay
Enterococcus faecium [3] = experiment: Antibacterial activity against vancomycin-resistant Enterococcus faecium Efm-HS-0649 harboring VanA phenotype incubated for 16 to 24 hrs by broth microdilution assay
Enterococcus faecium [4] = experiment: Antibacterial activity against vancomycin-resistant Enterococcus faecium Efm-HS-08257 harboring VanM phenotype incubated for 16 to 24 hrs by broth microdilution assay
Enterococcus faecium [5] = experiment: Antibacterial activity against vancomycin-resistant Enterococcus faecium Efm-HS-vb01 harboring VanB phenotype incubated for 16 to 24 hrs by broth microdilution assay
Enterococcus faecium [6] = experiment: Antibacterial activity against vancomycin-resistant Enterococcus faecium Efm-HS-vb02 harboring VanB phenotype incubated for 16 to 24 hrs by broth microdilution assay
Escherichia coli = experiment: Antibacterial activity against Escherichia coli AB1157 incubated for 16 to 24 hrs by broth microdilution assay
Acinetobacter baumannii [7] = experiment: Antibacterial activity against carbapenem-resistant Acinetobacter baumannii CRAB-1 clinical isolate incubated for 16 to 24 hrs by broth microdilution assay
Acinetobacter baumannii [8] = experiment: Antibacterial activity against Acinetobacter baumannii ATCC19606 incubated for 16 to 24 hrs by broth microdilution assay
Pseudomonas aeruginosa = experiment: Antibacterial activity against Pseudomonas aeruginosa PAO1 incubated for 16 to 24 hrs by broth microdilution assay
Klebsiella pneumoniae = experiment: Antibacterial activity against Klebsiella pneumoniae KP-1 incubated for 16 to 24 hrs by broth microdilution assay

| SMILES | MIC (Staphylococcus aureus [1]) [µg/mL] | MIC (Staphylococcus aureus [2]) [µg/mL] | MIC (Enterococcus faecium [3]) [µg/mL] | MIC (Enterococcus faecium [4]) [µg/mL] | MIC (Enterococcus faecium [5]) [µg/mL] | MIC (Enterococcus faecium [6]) [µg/mL] | MIC (Escherichia coli) [µg/mL] | MIC (Acinetobacter baumannii [7]) [µg/mL] | MIC (Acinetobacter baumannii [8]) [µg/mL] | MIC (Pseudomonas aeruginosa) [µg/mL] | MIC (Klebsiella pneumoniae) [µg/mL] |
| --- | --- | --- | --- | --- | --- | --- | --- | --- | --- | --- | --- |
| CN[C@H](CC(C)C)C(=O)N[C@H]1C(=O)N[C@@H](CC(N)=O)C(=O)N[C@H]2C(=O)N[C@H]3C(=O)N[C@H](C(=O)N[C@H](C(=O)O)c4cc(O)c(CNCCC[S+](C)CC(O)COc5ccccc5)c(O)c4-c4cc3ccc4O)[C@H](O)c3ccc(c(Cl)c3)Oc3cc2cc(c3O[C@@H]2O[C@H](CO)[C@@H](O)[C@H](O)[C@H]2O[C@H]2C[C@](C)(N)[C@H](O)[C@H](C)O2)Oc2ccc(cc2Cl)[C@H]1O.O=C([O-])C(F)(F)F (some centres not stated) | 4 | 0.5 | 128 | 64 | 2 | 4 | 32 | 128 | 128 | > 128 | > 128 |
| CC(C)CCCCC(=O)N[C@@H](CCN)C(=O)N[C@H](C(=O)N[C@@H](CCN)C(=O)N[C@H]1CCNC(=O)[C@H]([C@@H](C)O)NC(=O)[C@H](CCN)NC(=O)[C@H](CCN)NC(=O)[C@H](CC(C)C)NC(=O)[C@@H](Cc2ccccc2)NC(=O)[C@H](CCN)NC1=O)[C@@H](C)O.CC[C@H](C)CCCCC(=O)N[C@@H](CCN)C(=O)N[C@H](C(=O)N[C@@H](CCN)C(=O)N[C@H]1CCNC(=O)[C@H]([C@@H](C)O)NC(=O)[C@H](CCN)NC(=O)[C@H](CCN)NC(=O)[C@H](CC(C)C)NC(=O)[C@@H](Cc2ccccc2)NC(=O)[C@H](CCN)NC1=O)[C@@H](C)O (X1-[Dab]T[Dab][Dab][Dab][dF]L[Dab][Dab]T; lactam 4-C) |  |  |  |  |  |  | 0.125 | 0.125 | 0.125 | 0.5 | ≤ 0.063 |
| CN[C@H](CC(C)C)C(=O)N[C@H]1C(=O)N[C@@H](CC(N)=O)C(=O)N[C@H]2C(=O)N[C@H]3C(=O)N[C@H](C(=O)N[C@H](C(=O)NCCC[S+](C)CC(O)CCc4ccccc4)c4cc(O)cc(O)c4-c4cc3ccc4O)[C@H](O)c3ccc(c(Cl)c3)Oc3cc2cc(c3O[C@@H]2O[C@H](CO)[C@@H](O)[C@H](O)[C@H]2O[C@H]2C[C@](C)(N)[C@H](O)[C@H](C)O2)Oc2ccc(cc2Cl)[C@H]1O.O=C([O-])C(F)(F)F (some centres not stated) | 2 | 0.5 | 32 | 32 | 32 | 2 | 32 | > 128 | > 128 | 128 | > 128 |
| CN[C@H](CC(C)C)C(=O)N[C@H]1C(=O)N[C@@H](CC(N)=O)C(=O)N[C@H]2C(=O)N[C@H]3C(=O)N[C@H](C(=O)N[C@H](C(=O)NCCC[S+](C)C[C@@H](O)COc4ccccc4)c4cc(O)cc(O)c4-c4cc3ccc4O)[C@H](O)c3ccc(c(Cl)c3)Oc3cc2cc(c3O[C@@H]2O[C@H](CO)[C@@H](O)[C@H](O)[C@H]2O[C@H]2C[C@](C)(N)[C@H](O)[C@H](C)O2)Oc2ccc(cc2Cl)[C@H]1O.O=C([O-])C(F)(F)F (some centres not stated) | 2 | 0.25 | 32 | 16 | 16 | 2 | 16 | > 128 | 64 | > 128 | > 128 |
| CN[C@H](CC(C)C)C(=O)N[C@H]1C(=O)N[C@@H](CC(N)=O)C(=O)N[C@H]2C(=O)N[C@H]3C(=O)N[C@H](C(=O)N[C@H](C(=O)NCCC[S+](C)CC(O)COc4ccc(C(F)(F)F)cc4)c4cc(O)cc(O)c4-c4cc3ccc4O)[C@H](O)c3ccc(c(Cl)c3)Oc3cc2cc(c3O[C@@H]2O[C@H](CO)[C@@H](O)[C@H](O)[C@H]2O[C@H]2C[C@](C)(N)[C@H](O)[C@H](C)O2)Oc2ccc(cc2Cl)[C@H]1O.O=C([O-])C(F)(F)F (some centres not stated) | 1 | ≤ 0.063 | 16 | 8 | 8 | 4 | 32 | 64 | 32 | 128 | > 128 |
| CN[C@H](CC(C)C)C(=O)N[C@H]1C(=O)N[C@@H](CC(N)=O)C(=O)N[C@H]2C(=O)N[C@H]3C(=O)N[C@H](C(=O)N[C@H](C(=O)O)c4cc(O)c(CNCCC[S+](C)C[C@@H](O)COc5ccccc5)c(O)c4-c4cc3ccc4O)[C@H](O)c3ccc(c(Cl)c3)Oc3cc2cc(c3O[C@@H]2O[C@H](CO)[C@@H](O)[C@H](O)[C@H]2O[C@H]2C[C@](C)(N)[C@H](O)[C@H](C)O2)Oc2ccc(cc2Cl)[C@H]1O.O=C([O-])C(F)(F)F (some centres not stated) | 4 | 0.5 | > 128 | 128 | 2 | 4 | 16 | > 128 | 128 | > 128 | > 128 |
| CN[C@H](CC(C)C)C(=O)N[C@H]1C(=O)N[C@@H](CC(N)=O)C(=O)N[C@H]2C(=O)N[C@H]3C(=O)N[C@H](C(=O)N[C@H](C(=O)NCCC[S+](C)CC(O)COc4ccc(Cl)cc4)c4cc(O)cc(O)c4-c4cc3ccc4O)[C@H](O)c3ccc(c(Cl)c3)Oc3cc2cc(c3O[C@@H]2O[C@H](CO)[C@@H](O)[C@H](O)[C@H]2O[C@H]2C[C@](C)(N)[C@H](O)[C@H](C)O2)Oc2ccc(cc2Cl)[C@H]1O.O=C([O-])C(F)(F)F (some centres not stated) | 1 | ≤ 0.063 | 16 | 8 | 8 | 4 | 16 | 128 | 32 | 128 | > 128 |
| CN[C@H](CC(C)C)C(=O)N[C@H]1C(=O)N[C@@H](CC(N)=O)C(=O)N[C@H]2C(=O)N[C@H]3C(=O)N[C@H](C(=O)N[C@H](C(=O)O)c4cc(O)c(CNCCC[S+](C)C[C@H](O)COc5ccccc5)c(O)c4-c4cc3ccc4O)[C@H](O)c3ccc(c(Cl)c3)Oc3cc2cc(c3O[C@@H]2O[C@H](CO)[C@@H](O)[C@H](O)[C@H]2O[C@H]2C[C@](C)(N)[C@H](O)[C@H](C)O2)Oc2ccc(cc2Cl)[C@H]1O.O=C([O-])C(F)(F)F (some centres not stated) | 16 | 2 | > 128 | 128 | 4 | 8 | 64 | > 128 | > 128 | > 128 | > 128 |
| CC(=O)NC[C@H]1CN(c2ccc(N3CCOCC3)c(F)c2)C(=O)O1 [LINEZOLID] |  | 1 (≈ 2.96 µM) | 1 (≈ 2.96 µM) | 2 (≈ 5.93 µM) | 2 (≈ 5.93 µM) | 2 (≈ 5.93 µM) | 128 (≈ 379 µM) | 128 (≈ 379 µM) | 128 (≈ 379 µM) | 128 (≈ 379 µM) | > 128 |
| CN[C@H](CC(C)C)C(=O)N[C@H]1C(=O)N[C@@H](CC(N)=O)C(=O)N[C@H]2C(=O)N[C@H]3C(=O)N[C@H](C(=O)N[C@H](C(=O)NCCC[S+](C)CC(O)COc4ccc(-c5ccc(C(F)(F)F)cc5)cc4)c4cc(O)cc(O)c4-c4cc3ccc4O)[C@H](O)c3ccc(c(Cl)c3)Oc3cc2cc(c3O[C@@H]2O[C@H](CO)[C@@H](O)[C@H](O)[C@H]2O[C@H]2C[C@](C)(N)[C@H](O)[C@H](C)O2)Oc2ccc(cc2Cl)[C@H]1O.O=C([O-])C(F)(F)F (some centres not stated) | 0.25 | 0.5 | 2 | 1 | 4 | 0.5 | 16 | 128 | 32 | > 128 | > 128 |
| CN[C@H](CC(C)C)C(=O)N[C@H]1C(=O)N[C@@H](CC(N)=O)C(=O)N[C@H]2C(=O)N[C@H]3C(=O)N[C@H](C(=O)N[C@H](C(=O)O)c4cc(O)cc(O)c4-c4cc3ccc4O)[C@H](O)c3ccc(c(Cl)c3)Oc3cc2cc(c3O[C@@H]2O[C@H](CO)[C@@H](O)[C@H](O)[C@H]2O[C@H]2C[C@](C)(NCCC[S+](C)CC(O)COc3ccccc3)[C@H](O)[C@H](C)O2)Oc2ccc(cc2Cl)[C@H]1O.O=C([O-])C(F)(F)F (some centres not stated) | 1 | 0.25 | 16 | 16 | 16 | 4 | 128 | 128 | 128 | > 128 | > 128 |
| C[C@@H](O)[C@H]1C(=O)N2C(C(=O)O)=C(S[C@@H]3CN[C@H](C(=O)N(C)C)C3)[C@H](C)[C@H]12 [MEROPENEM] |  |  |  |  |  |  |  | > 128 | 2 (≈ 5.22 µM) |  |  |
| CCCCCCCCCC(=O)N[C@@H](Cc1c[nH]c2ccccc12)C(=O)N[C@@H](CC(N)=O)C(=O)N[C@@H](CC(=O)O)C(=O)N[C@@H]1C(=O)NCC(=O)N[C@@H](CCCN)C(=O)N[C@@H](CC(=O)O)C(=O)N[C@H](C)C(=O)N[C@@H](CC(=O)O)C(=O)NCC(=O)N[C@H](CO)C(=O)N[C@@H]([C@@H](C)CC(=O)O)C(=O)N[C@@H](CC(=O)c2ccccc2N)C(=O)O[C@@H]1C | 4 (≈ 2.47 µM) | 1 (≈ 0.617 µM) | 8 (≈ 4.94 µM) | 8 (≈ 4.94 µM) | 8 (≈ 4.94 µM) | 4 (≈ 2.47 µM) |  |  |  |  |  |
